Laboratory results published in patent publication US8318730B2, “Fused hetrocyclic compounds” (Synta Pharmaceuticals Corporation, priority 2003, dated 2012).
Each block holds one compound with its values, some of them ahead of it.

Legend:
IL-12 production = experiment: In vitro assay of Example 12: inhibition of IL-12 production in IFNγ/LPS- or IFNγ/SAC-stimulated cells, ELISA; assay type: cell-based, human
Description: The biological activities of a compound can be evaluated by a number of cell-based assays. One of such assays can be conducted using cells from human peripheral blood mononuclear cells (PBMC) or human monocytic cell line (THP-1). The cells are stimulated with a combination of human interferon-γ (IFNγ) and lipopolysaccharide or a combination of IFNγ and Staphylococcus aureus Cowan I in the presence of a test compound. The level of inhibition of IL-12 production can be measured by determining the amount of p70 by using a sandwich ELISA assay with anti-human IL-12 antibodies. IC50 of the test compound can then be determined. Specifically, PBMC or THP-1 cells are incubated with the test compound. Cell viability was assessed using the bioreduction of MTS [3-(4,5-dimethylthiazol-2-yl)-5-(3-carboxymethoxyphenyl)-2-(4-sulfophenyl)-2H-tetrazolium] (Promega, Madison, Wis.).
Staphylococcus aureus Cowan I (SAC) is obtained from Calbiochem (La Jolla, Calif.), and lipopolysaccharide (LPS, Serratia marscencens) is obtained from Sigma (St. Louis, Mo.). Human and mouse recombinant IFNγ are purchased from Boehringer Mannheim (Mannheim, Germany) and Pharmingen (San Diego, Calif.), respectively.
Human PBMC are isolated by centrifugation using Ficoll-Paque (Pharmacia Biotech, Uppsala, Sweden) and prepared in RPMI medium supplemented with 10% fetal calf serum (FCS), 100 U/mL penicillin, and 100 μg/mL streptomycin. PBMC are plated in wells of a 96-well plate at a concentration of 5×10^5 cells/well, and primed by adding IFNγ (30 U/mL) for 22 h and stimulated by adding LPS (1 μg/mL), or by adding IFNγ (100 U/mL) and then stimulated by adding SAC (0.01%). A test quinazoline compound is dissolved in DMSO, and added to wells of the 96-well plate. The final DMSO concentration is adjusted to 0.25% in all cultures, including the compound-free control. Human THP-1 cells are plated in wells, primed by adding IFNγ (100 U/mL) for 22 h and stimulated by adding SAC (0.025%) in the presence of different concentrations of the quinazoline compound. Cell-free supernatants are taken 18 h later for measurement of cytokines. Cell viability is assessed using the bioreduction of MTS. Cell survival is estimated by determining the ratio of the absorbance in compound-treated groups versus compound-free control.
The supernatant is assayed for the amount of IL-12p40, IL-12p70, or IL-10 by using a sandwich ELISA with anti-human antibodies, i.e., a Human IL-12 p40 ELISA kit from R&D Systems (Berkeley, Calif.), and a Human IL-12 p70 or IL-10 ELISA kit from Endogen (Cambridge, Mass.). Assays are based on the manufacturer's instructions.
The biological activities of quinazoline compounds are tested on human PBMC or THP-1 cells.

[1] = system: adjuvant arthritis (AA) in female Lewis rats; experiment: Treatment of adjuvant arthritis in rats; assay type: in vivo, rat; settings: oral administration once a day for 12 days; dose-dependent
Protocol: Adjuvant arthritis (AA) is induced in female Lewis rats by the intracutaneous injection (base of the tail) of 0.1 mL of a 10 mg/mL bacterial suspension made from ground, heat-killed Mycobacterium tuberculosis H37Ra suspended in incomplete Freund's adjuvant. Rats are given a test compound orally once a day for 12 days, starting the day following the induction. The development of polyarthritis is monitored daily by macroscopic inspection and assignment of an arthritis index to each animal, during the critical period (days 10 to 25 post-immunization).
The intensity of polyarthritis scored according to the following scheme: (a) Grade each paw from 0 to 3 based on erythema, swelling, and deformity of the joints: 0 for no erythema or swelling; 0.5 if swelling is detectable in at least one joint; 1 for mild swelling and erythema; 2 for swelling and erythema of both tarsus and carpus; and 3 for ankylosis and bony deformity. Maximum score for all 4 paws is thus 12. (b) Grade for other parts of the body: for each ear, 0.5 for redness and another 0.5 if knots are present; 1 for connective tissue swelling (saddle nose); and 1 for the presence of knots or kinks in the tail. The highest possible arthritic index is […].

[2] = system: DNBS-induced distal colitis in Wistar derived rats; experiment: Dinitrobenzene sulfonic acid-induced inflammatory bowel syndrome model rats; assay type: in vivo, rat; settings: oral, 24 and 2 hours before DNBS instillation and then daily for 5 days
Protocol: Wistar derived male or female rats weighing 200±20 g and fasted for 24 hours are used. Distal colitis was induced by intra-colonic instillation of 2,4-dinitrobenzene sulfonic acid (DNBS, 25 mg in 0.5 mL ethanol 30%) after which air (2 mL) is gently injected through the cannula to ensure that the solution remained in the colon. A test compound and/or vehicle is administered orally 24 and 2 hours before DNBS instillation and then daily for 5 days. One control group is similarly treated with vehicle alone while the other is treated with vehicle plus DNBS. The animals are sacrificed 24 hours after the final dose of test compound administration and each colon is removed and weighed. Colon-to-body weight ratio is then calculated for each animal according to the formula: Colon (g)/BW×100. The “Net” increase in ratio of Vehicle-control+DNBS group relative to Vehicle-control group is used as a base for comparison with test substance treated groups and expressed as “% Deduction.” Fused heterocyclic compounds of this invention (e.g., Compound 12) reproducibly have about 30% deduction. A 30% or more reduction in colon-to-body weight ratio, relative to the vehicle treated control group, is considered significant.

[3] = system: colitis in C.B-17 SCID mice; experiment: CD4+ CD45Rb high T cell-reconstituted SCID colitis model mice; assay type: in vivo, mouse
Protocol: Spleen cells are prepared from normal female BALB/c mice. For cell purification, the following anti-mouse antibodies are used to label non-CD4^+ T cells: B220 (RA3-6B2), CD11b (Ml/70), and CD8a (53-6.72). All antibodies are obtained from BioSource (Camarillo, Calif.). M450 anti-rat IgG-coated magnetic beads (Dynal, Oslo, Norway) are used to bind the antibodies and negative selection is accomplished using an MPC-1 magnetic concentrator. The enriched CD4^+ cells are then labeled for cell sorting with FITC-conjugated CD45RB (16A, Pharmingen, San Diego, Calif.) and PE-conjugated CD4 (CT-CD4, Caltag, Burlingame, Calif.). CD4^+ CD45RB^high cells are operationally defined as the upper 40% of CD45Rb-staining CD4^+ cells and sorted under sterile conditions by flow cytometry. Harvested cells are resuspended at 4×10^6/mL in PBS and injected 100 μL intraperitoneally into female C.B-17 SCID mice. Fused heterocyclic compounds of this invention and/or vehicle is orally administered once a day, 5 days per week, starting the day following the transfer. The transplanted SCID mice are weighed weekly and their clinical condition is monitored.
Colon tissue samples are fixed in 10% buffered formalin and embedded in paraffin. Sections (4 μm) collected from ascending, transverse, and descending colon are cut and stained with hematoxylin and eosin. The severity of colitis is determined based on histological examination of the distal colon sections, whereby the extent of colonic inflammation is graded on a scale of 0-3 in each of four criteria: crypt elongation, cell infiltration, depletion of goblet cells, and the number of crypt abscesses.
LP lymphocytes are isolated from freshly obtained colonic specimens. After removal of payer's patches, the colon is washed in Ca/Mg-free HBSS, cut into 0.5 cm pieces and incubated twice in HBSS containing EDTA (0.75 mM), DTT (1 mM), and antibiotics (amphotericin 2.5 μg/mL, gentamicin 50 μg/mL from Sigma) at 37° C. for 15 min. Next, the tissue is digested further in RPMI containing 0.5 mg/mL collagenase D, 0.01 mg/mL DNase I (Boehringer Manheim), and antibiotics at 37° C. LP cells are then layered on a 40-100% Percoll gradient (Pharmacia, Uppsala, Sweden), and lymphocyte-enriched populations are isolated from the cells at the 40-100% interface.
To measure cytokine production, 48-well plates are coated with 10 μg/mL murine anti-CD3ε antibody (145-2C11) in carbonate buffer (PH 9.6) overnight at 4° C. 5×10^5 LP cells are then cultured in 0.5 ml of complete medium in precoated wells in the presence of 1 μg/mL soluble anti-CD28 antibody (37.51). Purified antibodies are obtained from Pharmingen. […] Murine IFNγ is measured using an ELISA kit from Endogen (Cambridge, Mass.), according to the manufacturer's instructions.

[4] = Homo sapiens, assay of Example 12, if more than one assay was performed, only the most active IC50 result is reported
[5] = measured in an assay according to Example 12, human PBMC or THP-1 cells

IC50 (IL-12 production; [4]): 0.189 µM
Structure (SMILES): Cc1cccc(-c2ccc3nc(OCCN4CCOCC4)nc(N4CCOCC4)c3c2)c1 [Compound 12, 4-Morpholin-4-yl-2-(2-morpholin-4-yl-ethoxy)-6-m-tolyl-quinazoline]
arthritic score [1]: reproducibly reduces the arthritic score
development of polyarthritis [1]: delayes the development of polyarthritis
% Deduction (colon-to-body weight ratio) [2]: about 30%
IFNγ production by LP cells in response to anti-CD3 and anti-CD28 antibody ([3]; ex vivo LP cells from treated mice): greatly diminishes the production
colon-to-body weight ratio ([3]; oral administration): attenuation
colonic inflammation (histological analysis) ([3]; oral administration, compared to vehicle control): reduce colonic inflammation
colonic inflammation, suppressive effect ([3]; oral, dose of 10 mg/kg): substantial reduction

IC50 (IL-12 production; [5]): 0.0605 µM
Structure (SMILES): COc1cc2nc(N3CCOCC3)nc(NC(=O)Nc3cccc(C)c3)c2cc1OC [Compound 6, 1-(6,7-dimethoxy-2-morpholin-4-yl-quinazolin-4-yl)-3-m-tolyl-urea]

IC50 (IL-12 production; [4]): > 10 µM
Structure (SMILES): COc1ccc(CCOc2nc(N3CCOCC3)c3cc(Nc4cccc(C)c4)ccc3n2)cc1OC [Compound 39, {2-[2-(3,4-Dimethoxy-phenyl)-ethoxy]-4-morpholin-4-yl-quinazolin-6-yl}-m-tolyl-amine]

IC50 (IL-12 production; [4]): 0.086 µM
Structure (SMILES): Cc1cccc(-c2ccc3nc(OCCc4ccccn4)nc(N4CCOCC4)c3c2)c1 [Compound 16, 4-Morpholin-4-yl-2-(2-pyridin-2-yl-ethoxy)-6-m-tolyl-quinazoline]

IC50 (IL-12 production; [4]): 3 µM
Structure (SMILES): COc1ccc(CCOc2nc(N3CCOCC3)c3cc(-c4ccc(C(F)(F)F)cc4)ccc3n2)cc1OC [Compound 32, 2-[2-(3,4-Dimethoxy-phenyl)-ethoxy]-4-morpholin-4-yl-6-(4-trifluoromethyl-phenyl)-quinazoline]

IC50 (IL-12 production; Homo sapiens, in an assay according to Example 12): 5.4 µM
Structure (SMILES): Cc1cccc(-c2cc(O)c3cc(OCCN4CCOCC4)cc(N4CCOCC4)c3n2)c1 [Compound 49, 8-Morpholin-4-yl-6-(2-morpholin-4-yl-ethoxy)-2-m-tolyl-quinolin-4-ol]

IC50 (IL-12 production; [4]): 0.107 µM
Structure (SMILES): COc1ccc(CCOc2nc(N3CCOCC3)c3cc(-c4cccc(C(F)(F)F)c4)ccc3n2)cc1OC [Compound 20, 2-[2-(3,4-Dimethoxy-phenyl)-ethoxy]-4-morpholin-4-yl-6-(3-trifluoromethyl-phenyl)-quinazoline]

IC50 (IL-12 production; [4]): > 1 µM
Structure (SMILES): COc1ccc(CCOc2nc(N3CCOCC3)c3cc(-c4ccc(Cl)cc4)ccc3n2)cc1OC [Compound 30, 6-(4-Chloro-phenyl)-2-[2-(3,4-dimethoxy-phenyl)-ethoxy]-4-morpholin-4-yl-quinazoline]

IC50 (IL-12 production; [4]): 2.6 µM
Structure (SMILES): COc1ccc(CCOc2nc(N3CCOCC3)c3cc(Oc4ccc(C)cc4)ccc3n2)cc1OC [Compound 36, 2-[2-(3,4-Dimethoxy-phenyl)-ethoxy]-4-morpholin-4-yl-6-p-tolyloxy-quinazoline]

IC50 (IL-12 production; [5]): 10 µM
Structure (SMILES): COc1cc2nc(N3CCOCC3)nc(Nc3cccc(C)c3)c2cc1OC [Compound 11, (6,7-Dimethoxy-2-morpholin-4-yl-quinazolin-4-yl)-m-tolyl-amine]

IC50 (IL-12 production; [4]): > 10 µM
Structure (SMILES): COc1ccc(CCOc2nc(N3CCOCC3)c3cc(-c4cccc(C#N)c4)ccc3n2)cc1OC [Compound 23, 3-{2-[2-(3,4-Dimethoxy-phenyl)-ethoxy]-4-morpholin-4-yl-quinazolin-6-yl}-benzonitrile]
